Results reported in ChEMBL document CHEMBL1201862, “PubChem BioAssay data set” (2004).
Calls of active or inactive are those of the source.

Key:
BJ = test: cytotoxicity toward BJ-TERT-LT-ST fibroblasts, dose response, cell-based, RAS-independent, luminescence (AID 1935); assay type: functional; conditions: Homo sapiens;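 note: BJ fibroblasts immortalized with TERT plus LT and ST oncogenes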
[1] = biological target: Dual specificity protein phosphatase 3 (Homo sapiens, UniProt P51452); test: VHR phosphatase inhibition, dose response, selectivity assay for STEP inhibitor project, biochemical (AID 602374); assay type: functional; conditions: read-out: IC50_Mean
Dual specificity protein phosphatase 3, sequence (P51452 whole entry): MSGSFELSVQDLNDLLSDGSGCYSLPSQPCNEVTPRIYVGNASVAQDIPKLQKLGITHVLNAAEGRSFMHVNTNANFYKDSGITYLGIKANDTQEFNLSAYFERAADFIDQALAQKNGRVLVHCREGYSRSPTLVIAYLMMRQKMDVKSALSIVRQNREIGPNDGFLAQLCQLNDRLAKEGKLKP

[2] = biological target: T1, Lysine-specific demethylase 4A (Homo sapiens, UniProt O75164); test: JMJD2A histone demethylase inhibitors, dose response, selectivity assay for GASC-1 inhibitor project, biochemical, DELFIA europium, cherry-picked samples (AID 488840)
T1 sequence (O75164 whole entry): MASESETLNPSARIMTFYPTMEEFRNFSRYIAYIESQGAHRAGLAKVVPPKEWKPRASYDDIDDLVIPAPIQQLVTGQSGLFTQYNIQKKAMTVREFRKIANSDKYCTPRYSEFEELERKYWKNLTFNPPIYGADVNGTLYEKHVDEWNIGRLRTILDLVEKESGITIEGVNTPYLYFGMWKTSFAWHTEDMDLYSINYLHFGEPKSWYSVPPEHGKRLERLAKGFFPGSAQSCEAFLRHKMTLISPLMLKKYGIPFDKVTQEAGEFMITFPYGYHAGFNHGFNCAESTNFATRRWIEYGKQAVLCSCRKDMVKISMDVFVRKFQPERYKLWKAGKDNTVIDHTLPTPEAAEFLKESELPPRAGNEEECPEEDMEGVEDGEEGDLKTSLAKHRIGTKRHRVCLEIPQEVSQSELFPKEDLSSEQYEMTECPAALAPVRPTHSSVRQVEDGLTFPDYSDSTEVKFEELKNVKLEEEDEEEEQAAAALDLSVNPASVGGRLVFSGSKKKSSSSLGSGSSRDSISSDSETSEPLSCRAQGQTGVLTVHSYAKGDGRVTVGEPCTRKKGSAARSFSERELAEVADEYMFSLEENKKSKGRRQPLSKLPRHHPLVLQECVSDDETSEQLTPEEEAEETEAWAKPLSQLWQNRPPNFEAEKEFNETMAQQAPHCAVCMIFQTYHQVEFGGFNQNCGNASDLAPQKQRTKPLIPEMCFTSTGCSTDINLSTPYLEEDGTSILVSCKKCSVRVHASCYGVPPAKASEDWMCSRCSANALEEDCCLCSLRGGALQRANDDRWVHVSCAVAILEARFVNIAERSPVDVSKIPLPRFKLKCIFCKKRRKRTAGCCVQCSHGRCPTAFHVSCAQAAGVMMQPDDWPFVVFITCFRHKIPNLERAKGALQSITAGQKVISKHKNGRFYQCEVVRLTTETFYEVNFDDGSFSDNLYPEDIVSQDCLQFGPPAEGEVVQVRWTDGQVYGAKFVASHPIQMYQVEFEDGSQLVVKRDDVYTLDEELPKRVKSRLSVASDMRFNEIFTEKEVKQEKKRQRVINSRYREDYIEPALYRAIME

[3] = biological target: T2, Tyrosine-protein phosphatase non-receptor type 22 (Homo sapiens, UniProt Q9Y2R2); test: SAR LYP1 Fluorescent Assay using OMFP substrate for In Vitro dose response studies - Set 3. [Related pubchem assays (depositor defined):AID1779, AID1784, AID2140, AID2686]; assay type: functional
T2 sequence (Q9Y2R2 whole entry): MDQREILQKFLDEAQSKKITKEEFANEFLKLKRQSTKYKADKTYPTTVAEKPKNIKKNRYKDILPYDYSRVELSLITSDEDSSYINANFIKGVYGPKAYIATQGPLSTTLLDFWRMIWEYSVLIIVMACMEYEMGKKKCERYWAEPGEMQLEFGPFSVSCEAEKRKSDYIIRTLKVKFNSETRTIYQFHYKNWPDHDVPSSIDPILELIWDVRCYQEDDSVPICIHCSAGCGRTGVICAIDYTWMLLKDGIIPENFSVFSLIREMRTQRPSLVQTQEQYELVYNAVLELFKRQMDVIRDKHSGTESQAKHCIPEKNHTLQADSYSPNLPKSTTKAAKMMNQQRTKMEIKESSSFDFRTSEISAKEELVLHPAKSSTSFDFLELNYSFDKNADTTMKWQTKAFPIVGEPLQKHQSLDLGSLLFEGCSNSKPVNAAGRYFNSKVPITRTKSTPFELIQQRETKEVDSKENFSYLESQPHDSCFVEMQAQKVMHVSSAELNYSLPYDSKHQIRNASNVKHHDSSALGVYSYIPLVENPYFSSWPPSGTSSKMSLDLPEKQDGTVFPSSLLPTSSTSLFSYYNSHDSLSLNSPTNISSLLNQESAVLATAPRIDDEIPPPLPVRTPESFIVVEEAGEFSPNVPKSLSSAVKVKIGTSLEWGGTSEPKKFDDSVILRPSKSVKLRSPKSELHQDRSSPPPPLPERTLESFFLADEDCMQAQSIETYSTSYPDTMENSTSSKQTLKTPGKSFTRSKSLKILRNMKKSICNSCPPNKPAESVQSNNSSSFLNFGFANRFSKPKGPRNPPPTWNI

[4] = biological target: T3, Tyrosine-protein phosphatase non-receptor type 7 (Homo sapiens, UniProt P35236); test: HePTP (PTPN7) phosphatase inhibitor potency, SAR follow-up, biochemical, set 2 (AID 449736); assay type: functional
T3 sequence (P35236 whole entry): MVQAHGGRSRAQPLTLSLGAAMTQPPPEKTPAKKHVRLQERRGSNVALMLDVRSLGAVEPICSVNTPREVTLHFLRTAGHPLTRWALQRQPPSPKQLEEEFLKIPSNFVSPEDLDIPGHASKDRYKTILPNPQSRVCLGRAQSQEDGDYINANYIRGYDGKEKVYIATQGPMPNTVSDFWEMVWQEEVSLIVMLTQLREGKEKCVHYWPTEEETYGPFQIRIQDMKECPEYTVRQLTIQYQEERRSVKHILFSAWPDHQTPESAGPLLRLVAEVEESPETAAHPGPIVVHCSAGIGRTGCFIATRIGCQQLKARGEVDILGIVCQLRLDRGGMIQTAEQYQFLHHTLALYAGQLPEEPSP

[5] = biological target: T2, Tyrosine-protein phosphatase non-receptor type 22; test: SAR LYP1 Fluorescent Assay using pCAP substrate for In Vitro dose response studies - Set 2. [Related pubchem assays (depositor defined):AID1779, AID1784, AID2135, AID449727]; assay type: functional
[6] = biological target: T3, Tyrosine-protein phosphatase non-receptor type 7; test: HTS HePTP Fluorescent Assay using OMFP substrate for In Vitro dose response studies. [Related pubchem assays (depositor defined):AID1059, AID1077, AID1784, AID2068, AID2085, AID435032, AID521]; assay type: functional
Protein Tat = biological target: T4, Protein Tat (Human immunodeficiency virus type 1 group M subtype B (isolate HXB2)(HIV-1), UniProt P04608); assay type: functional;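 note: tat binding to TAR RNA read out by fluorescence polarization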
T4 sequence (P04608 whole entry): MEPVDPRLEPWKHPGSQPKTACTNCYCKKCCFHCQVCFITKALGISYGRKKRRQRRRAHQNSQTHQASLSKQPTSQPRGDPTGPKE

Question: How did the EC50 (BJ) turn out when `CCN1/C(=C/c2ccc3cc(C)ccc3[n+]2CC)Sc2cc(C)c(C)cc21` was run?
Answer: Its EC50 is 13.7 µM (inconclusive).

Question: For `CSc1ccc(C=NNc2ccc(S(=O)(=O)Nc3ccccc3C(=O)O)cc2[N+](=O)[O-])cc1`, which IC50 [1] is on record?
Answer: Its IC50 is 1.27 µM (active).

Question: And the AC50 [2]?
Answer: The AC50 was 12.4 µM (active).

Question: For `O=C(O)COc1ccc(/C=N/NC(=O)c2ccc(-c3csc(Nc4ccc(Cl)cc4)n3)cc2)cc1`, which IC50 [3] is on record?
Answer: The IC50 was 0.626 µM (active).

Question: And the IC50 [4]?
Answer: The IC50 was 0.193 µM (active).

Question: What about the IC50 [5] of the same compound?
Answer: The IC50 was 0.249 µM (active).

Question: And the IC50 [6]?
Answer: Its IC50 is > 99 µM (inactive).

Question: For `COc1cc(NCCCNC(C)C)c2nccc(C)c2c1`, which IC50 (Protein Tat) is on record?
Answer: Its IC50 is > 100 µM (active).
